Entries after “also recorded” stand apart in the source; their conditions may differ. Where two headings read alike, the source gives them in different places.
Tests used:
VT2 [1] = target: T1, VT2 (Escherichia coli, UniProt Q07871); type: binding, E. coli
VT2 [2] = target: T1, VT2; type: cell-based, E. coli
verocytotoxin 1 = verocytotoxin 1 (Bacteriophage H30, UniProt P69178)
Shiga toxin [3] = target: T2, Shiga toxin (Shigella dysenteriae, UniProt Q7BQ98); conditions: cited from earlier work
Shiga toxin [4] = target: T2, Shiga toxin; conditions: cited from earlier work; remark: listed apart in the source
VT1 toxin = VT1 toxin (Bacteriophage H30, UniProt P69178)
Sequence of VT1 toxin (P69178 whole entry, looked up): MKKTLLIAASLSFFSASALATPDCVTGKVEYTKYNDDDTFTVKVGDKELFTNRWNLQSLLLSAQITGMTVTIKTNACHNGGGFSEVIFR

[5] = natural verocytotoxin, glycolipid dotted at 0.01-50 nmol
[6] = purified natural VT1, tlc or dot blot, antiverocytotoxin and immunoperoxidase conjugate

T2 sequence (Q7BQ98 whole entry, looked up): as the sequence (P69178 whole entry, looked up) above
Sequence of verocytotoxin 1 (P69178 whole entry, looked up): as above

Compound: CCCCCCCCCCCCCC=CC(O)C(COC1OC(CO)C(OC2OC(CO)C(OC3OC(CO)C(O)C(OC4OC(CO)C(O)C(O)C4NC(C)=O)C3O)C(O)C2O)C(O)C1O)NC(=O)CCCCCCCCCCCCCCC (stereo not drawn) [GbOse4 cer, globotetraosyl ceramide]
- VT2 binding to glycolipid (VT2 [1]): no binding; also recorded: does not bind
- VT2 binding by liposomal adsorption (VT2 [2]): at least minimal
- verocytotoxin binding above background (125I-Protein A binding curves) (verocytotoxin 1; [5]): No binding above background
- verocytotoxin binding to glycolipid (verocytotoxin 1; [6]): No binding
- Shiga toxin binding to glycolipid (Shiga toxin [3]): residual binding

Compound: CCCCCCCCCCCCCC=CC(O)C(CO[C@@H]1O[C@H](CO)[C@@H](O[C@@H]2O[C@H](CO)[C@H](O)[C@H](O)[C@H]2O)[C@H](O)[C@H]1O)NC(=O)CCCCCCCCCCCCCCC (stereo partly drawn) [LacCer, lactosyl ceramide]
- VT2 binding to glycolipid (VT2 [1]): no binding
- verocytotoxin binding above background (125I-Protein A binding curves) (verocytotoxin 1; [5]): No binding above background
- verocytotoxin binding to glycolipid (verocytotoxin 1; [6]): No binding

Compound: N[C@H]1[C@H](O[C@H]2[C@H](O)[C@@H](N)[C@H](O[C@H]3[C@H](O)[C@@H](N)C(O)O[C@@H]3CO)O[C@@H]2CO)O[C@H](CO)[C@@H](O)[C@@H]1O (stereo partly drawn) [chiotriose]
- effect on Shiga toxin Gb0se3 cer binding (Shiga toxin [3]): little effect
- protection against Shiga toxin cytotoxicity (Shiga toxin [4]): protects against cytotoxicity

Compound: CCCCCCCCCCCCC/C=C/[C@@H](O)[C@@H](N)CO[C@@H]1O[C@H](CO)[C@@H](O[C@@H]2O[C@H](CO)[C@H](O[C@H]3O[C@H](CO)[C@H](O)[C@H](O)[C@H]3O)[C@H](O)[C@H]2O)[C@H](O)[C@H]1O [deacylated globotriosyl ceramide]
- amount of purified toxin the assay can detect (VT1 toxin): less than 5 pg
- effect of deacylation on verocytotoxin binding (VT1 toxin): does not inhibit verocytotoxin binding

Compound: CCCCCCCCCCCCCC=CC(O)C(CO[C@@H]1O[C@H](CO)[C@H](O[C@H]2O[C@H](CO)[C@H](O)[C@H](O)[C@H]2O)[C@H](O)[C@H]1O)NC(=O)CCCCCCCCCCCCCCC (stereo partly drawn) [galabiosyl ceramide]
- VT2 binding after digestion with αgalactosidase (VT2 [1]): binding is removed
- VT2 binding to glycolipid (VT2 [1]): binds
- VT1 binding to Daudi cell glycolipids (verocytotoxin 1; glycolipids contained in Daudi cells): VT1-binding

Compound: digalactosyl diglyceride [DGDG]
- VT2 binding to glycolipid (VT2 [1]): loss of VT2 binding; also recorded: do not bind
- verocytotoxin binding above background (125I-Protein A binding curves) (verocytotoxin 1): No binding above background
- verocytotoxin binding to glycolipid (verocytotoxin 1): unreactive with the toxin

Reference: patent US5164298A (priority 1988, dated 1992)
